In patent US20240382502A1, “COMPOSITIONS AND METHODS FOR DEEP DERMAL DRUG DELIVERY” (ARCUTIS BIOTHERAPEUTICS, INC., priority 2020, published 2024):

How the values were obtained:
[1] = Particle size distribution by laser diffraction; format: physicochemical; settings: SHR0302 used in Example 1, Malvern Hydro MV, ethyl acetate dispersion
Text: In the pharmaceutical compositions of the present invention, the active ingredient is present as small particles. Particle size of the drug can be assessed using laser diffraction methods. Laser diffraction is recognized by standards and guidance agencies including ISO and ASTM and is widely used to determine particle size distributions. In conducting the assessment, the sample is passed through a laser beam, which results in laser light scattered at a range of angles. Detectors placed at fixed angles measure the intensity of light scattered at that position. A mathematical model is then applied to generate a particle size distribution. The particle size values reported herein are determined by using a liquid or wet dispersion method.
In particle size determinations, the median value is defined as the value where half of the population resides above this point, and half resides below this point. For particle size distributions the median is called the D50. The D50 is the size that splits the distribution with half above and half below this diameter. The distribution width may also be characterized by citing one, two or three values on the x-axis, typically some combination of the D10, D50, and D90. The D50, the median, has been defined above as the diameter where half of the population lies below this value. Similarly, 90 percent of the distribution lies below the D90, and 10 percent of the population lies below the D10.
A pharmaceutical composition comprising 3% SHR0302 suspended in dimethicone was prepared. The primary particle size distribution of the SHR0302 is characterized by a D10 value of less than about 0.25 μm; a D50 value of less than about 0.7 μm; and a D90 value of less than about 5 μm. The pharmaceutical composition was a transparent solution due to the particles being too small to scatter visible light. A Malvern Metasizer Model 3000 using the Hydro MV dispersion unit was used to determine the particle size distribution profile of SHR0302. […]

JAK1 = JAK1 (Homo sapiens, UniProt P23458); settings: in words; cited from earlier work
Sequence of JAK1 (P23458 whole entry): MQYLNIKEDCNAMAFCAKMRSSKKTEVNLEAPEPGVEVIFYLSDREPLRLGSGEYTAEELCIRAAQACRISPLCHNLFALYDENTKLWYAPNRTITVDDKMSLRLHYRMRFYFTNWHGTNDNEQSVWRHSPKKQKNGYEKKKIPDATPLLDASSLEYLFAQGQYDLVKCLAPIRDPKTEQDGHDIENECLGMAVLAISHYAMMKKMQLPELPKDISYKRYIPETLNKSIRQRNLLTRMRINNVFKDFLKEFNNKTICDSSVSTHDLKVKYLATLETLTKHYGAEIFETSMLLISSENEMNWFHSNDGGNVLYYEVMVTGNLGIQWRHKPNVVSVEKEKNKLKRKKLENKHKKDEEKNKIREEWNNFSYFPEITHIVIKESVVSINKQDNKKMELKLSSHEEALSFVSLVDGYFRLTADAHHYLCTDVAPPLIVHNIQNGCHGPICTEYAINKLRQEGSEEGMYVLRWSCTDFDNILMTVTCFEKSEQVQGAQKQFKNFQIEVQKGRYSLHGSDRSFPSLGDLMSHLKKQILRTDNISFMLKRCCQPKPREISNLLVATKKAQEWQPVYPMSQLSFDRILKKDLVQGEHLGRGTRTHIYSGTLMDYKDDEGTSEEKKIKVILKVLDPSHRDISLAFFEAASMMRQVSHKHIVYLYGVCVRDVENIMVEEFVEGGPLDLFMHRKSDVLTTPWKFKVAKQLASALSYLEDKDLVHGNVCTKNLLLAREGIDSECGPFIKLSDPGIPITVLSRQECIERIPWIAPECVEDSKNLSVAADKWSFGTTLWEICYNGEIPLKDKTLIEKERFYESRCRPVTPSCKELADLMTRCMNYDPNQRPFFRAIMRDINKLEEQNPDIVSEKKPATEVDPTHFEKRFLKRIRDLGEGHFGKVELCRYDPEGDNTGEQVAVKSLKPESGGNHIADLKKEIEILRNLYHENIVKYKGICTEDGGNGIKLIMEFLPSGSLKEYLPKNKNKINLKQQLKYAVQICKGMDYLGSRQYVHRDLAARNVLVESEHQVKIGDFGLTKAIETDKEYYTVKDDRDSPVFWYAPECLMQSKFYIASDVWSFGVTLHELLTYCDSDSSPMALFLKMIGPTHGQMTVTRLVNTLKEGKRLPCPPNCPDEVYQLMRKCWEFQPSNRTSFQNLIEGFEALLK

[2] = orally administered, women; cited from earlier work

Row | primary particle size distribution D10 [1] | primary particle size distribution D50 [1] | primary particle size distribution D90 [1] | SMILES | inhibition of JAK1 (JAK1) | selectivity for JAK1 over JAK2 (JAK1) | efficacy in treatment of acne [2]
1 | less than 0.25 μm | less than 0.7 μm | less than 5 μm | COc1nsc(NC(=O)N2C[C@H]3C[C@H](N(C)c4ncnc5[nH]ccc45)C[C@H]3C2)n1 [SHR0302, (3aR,5S,6aS)-N-(3-methoxyl-1,2,4-thiadiazol-5-yl)-5-(methyl(7H-pyrrolo[2,3-d]pyrimidin-4-yl)amino)hexahydrocyclopenta[c]pyrrole-2(1H)-carboxamide] | potent | high selectively for JAK1 over JAK2 | –
2 | – | – | – | CC(=O)S[C@@H]1CC2=CC(=O)CC[C@]2(C)[C@H]2CC[C@@]3(C)[C@@H](CC[C@@]34CCC(=O)O4)[C@H]12 [spironolactone, 17-hydroxy-7α-mercapto-3-oxo-17α-pregn-4-ene-21-carboxylic acid γ-lactone acetate] | – | – | efficacious
